# Patent US10039806B2, “Methods and compositions for treating antiprogestin-resistant cancers” (Fundación Sales, priority 2011, dated 2018)
# Assays:
# IBH-6-pSG5 tumors = assay: Xenograft in nude mice; format: in vivo, human; settings: MFP 10 mg/kg/day; p<0.001
# From the text: (§1) BH-6 cell line was developed from an invasive ductal breast carcinoma (1). IBH-6 cells express basal levels of hormone receptors, they are tumorigenic and in vivo express higher levels of PRB than PRA (2). Cells were transfected with human PRB, PRA (pSG5-PRB, pSG5-PRA, kindly provided by K. Horwitz) or with the empty vector (pSG5), together with a plasmid encoding the neomycin resistance gene pIRES-N1(3), using Lipofectamine transfection reagent (Invitrogen) following the manufacturer's instructions. Transfected and selected cells were cultured in medium supplemented with […] G418 (neomycin analogue, GIBCO). The expression of PRB and PRA were analyzed by western blot and immunofluorescence (using Ab7 and Ab6 antibodies from Thermo Fisher). T47D-YA or YB were kindly provided by K. Horwitz and cultured as previously described (4).
# Transfected and selected cells were grown up to confluence, washed with PBS, detached with 0.25% trypsin, centrifuged at 1000 rpm for 10 min and resuspended in a final concentration of 10^6 (IBH-6) or 5×10^6 (T47D) cells per 100 μl of culture medium. The cells were sc inoculated into the right flank of nu/nu (IBH-6) or NOD/LtSz-scid/IL-2Rgamma null (T47D-YA or -YB cells) female mice. […]
# T47D-YA tumors = assay: Xenograft in NOD/LtSz-scid/IL-2Rgamma null mice; format: in vivo, human
# From the text: as §1
# (§2) Transfected and selected cells were grown up to confluence, washed with PBS, detached with 0.25% trypsin, centrifuged at 1000 rpm for 10 min and resuspended in a final concentration of 10^6 (IBH-6) or 5×10^6 (T47D) cells per 100 μl of culture medium. The cells were sc inoculated into the right flank of nu/nu (IBH-6) or NOD/LtSz-scid/IL-2Rgamma null (T47D-YA or -YB cells) female mice. Only in experiments involving T47D cells E2 silastic pellets (0.5 mg) were implanted sc into the back of the animals one week prior tumor cell inoculation and 70 μl of Matrigel were mixed with the cell suspension at the moment of injection. MFP (6 mg) silastic pellets were sc implanted when tumors reached 20-40 mm^2. For T47D cells, experiments were repeated inoculating both cell types (T47D-YA or -YB) simultaneously in the left or right flank of the mouse, respectively.
# (§3) Sections of formalin-fixed, paraffin-embedded tissue were stained with PR (C-19), or Ki67 (Dako, M7248) antibodies using the avidin-biotin-peroxidase complex technique (Vectastain Elite ABC kit; Vector), as described previously (6). Positive cells were counted in 10 high-power fields (HPFs) of each section, using 1000× magnification, and expressed as the mean±SEM of the ratio between the number of positive events and the total cell number.
# T47D-YB tumors = assay: Xenograft in NOD/LtSz-scid/IL-2Rgamma null mice; format: in vivo, human
# From the text: as §1, §2, §3
# HI-responsive tumors = assay: MPA breast cancer model, HI-responsive tumors in vivo; parameters: species or system mouse; settings: 1 mg/kg/day
# MCF-7 cells = settings: cited from earlier work
# T47D-YB cells = settings: 100 nM; cited from earlier work
# breast cancer = settings: cited from earlier work
# [1] = system: prostate and ovarian cancer xenografts; settings: 50 mg/kg/day; cited from earlier work
# PR = target: T1, PR (Homo sapiens, UniProt P06401); settings: T47D cells transfected with MMTV-CAT; cited from earlier work
# T1 sequence (P06401 1-933): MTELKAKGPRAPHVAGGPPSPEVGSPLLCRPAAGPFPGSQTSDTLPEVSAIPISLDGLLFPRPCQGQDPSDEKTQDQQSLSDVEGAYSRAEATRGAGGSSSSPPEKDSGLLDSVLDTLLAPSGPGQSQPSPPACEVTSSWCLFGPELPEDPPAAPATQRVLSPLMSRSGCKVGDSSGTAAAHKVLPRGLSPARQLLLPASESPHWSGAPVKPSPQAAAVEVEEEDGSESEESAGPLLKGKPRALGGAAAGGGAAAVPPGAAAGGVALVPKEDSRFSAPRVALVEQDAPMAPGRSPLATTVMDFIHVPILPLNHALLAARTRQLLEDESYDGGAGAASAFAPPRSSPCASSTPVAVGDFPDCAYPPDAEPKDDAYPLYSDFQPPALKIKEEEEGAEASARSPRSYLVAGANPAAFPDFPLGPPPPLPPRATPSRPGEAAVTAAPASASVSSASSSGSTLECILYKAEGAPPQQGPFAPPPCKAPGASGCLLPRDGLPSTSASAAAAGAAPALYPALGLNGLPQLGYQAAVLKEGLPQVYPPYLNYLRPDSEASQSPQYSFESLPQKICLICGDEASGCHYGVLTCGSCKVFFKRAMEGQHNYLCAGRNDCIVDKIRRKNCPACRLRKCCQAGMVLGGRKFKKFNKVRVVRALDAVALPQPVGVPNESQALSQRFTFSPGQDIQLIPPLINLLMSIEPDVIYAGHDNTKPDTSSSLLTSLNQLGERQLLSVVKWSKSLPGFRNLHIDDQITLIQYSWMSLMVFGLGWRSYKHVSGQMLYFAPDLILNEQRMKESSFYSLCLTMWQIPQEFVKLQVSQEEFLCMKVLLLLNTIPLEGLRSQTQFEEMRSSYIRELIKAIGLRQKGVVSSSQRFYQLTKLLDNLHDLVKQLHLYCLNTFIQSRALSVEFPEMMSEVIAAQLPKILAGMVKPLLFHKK
# [2] = 28 postmenopausal PR+ patients, 200 mg/day
structure (smiles),measurement,setting,value
"CC#C[C@]1(O)CC[C@H]2[C@@H]3CCC4=CC(=O)CCC4=C3[C@@H](c3ccc(N(C)C)cc3)C[C@@]21C [RU-486, mifepristone]",in vivo growth,IBH-6-pSG5 tumors,stimulated
same,tumor size,"T47D-YA tumors; MFP pellet, E2 pellet 0.5 mg, p<0.05",reduced their size
same,mitotic figures and apoptosis,T47D-YA tumors; in vivo,Few mitotic figures and a high degree of apoptosis
same,nuclear MYC or CCND1 expression (IHC),T47D-YA tumors; in vivo,decreased levels of nuclear MYC or CCND1 expression
same,tumor morphology,T47D-YA tumors; in vivo,morphological signs of tumor regression
same,tumor size,"T47D-YB tumors; MFP pellet, E2 pellet 0.5 mg",no significant differences
same,nuclear MYC or CCND1 staining (IHC),T47D-YB tumors; in vivo,intense nuclear staining
same,tumor growth,HI-responsive tumors,inhibitory effects
same,E2-induced cell proliferation,"MCF-7 cells; 10 nM, 10% steroid-deficient human serum",inhibited E2-induced cell proliferation
same,PR-mediated cell proliferation,MCF-7 cells,inhibited PR-mediated cell proliferation
same,progesterone-induced cell proliferation,MCF-7 cells; nanomolar concentrations,inhibit progesterone-induced cell proliferation
same,cell proliferation,T47D-YB cells,increased cell proliferation
same,response rate,"breast cancer; 22 patients, TAM-resistant metastases, 200 mg/day, following 3 months of therapy",18%
same,side effects: lethargy,"breast cancer; 28 postmenopausal PR+ patients, 200 mg/day, more than 8 weeks",68%
same,partial response,breast cancer; [2],3 patients
same,side effects: anorexia,breast cancer; [2],39%
same,side effects: hot flashes,breast cancer; [2],50%
same,side effects: skin rash,breast cancer; [2],32%
same,side effects: vomiting,breast cancer; [2],29%
same,clinical response,"breast cancer; eleven patients with metastases, 200-400 mg daily p.o.","objective response in one patient, six patients showed temporal stabilization, and four patients had progressive disease"
same,xenograft growth,[1],inhibitory
same,effect in cells treated with analogs of cyclic AMP,PR,exerts an agonistic effect
